Consider ten molecules from PMC6761529 (Antimicrobial Agents and Chemotherapy, 2019).

Series [1] concerns K. pneumoniae Ecl8 pUBYT KPC-2. As to the kind of experiment: microbe, parasite or virus in culture. It is filed as cell-based. As to conditions: Klebsiella pneumoniae. The text has this:
(§1) The pUBYT vector containing blaKPC-3 under the ISKpn7 promoter was used as a template for site-directed mutagenesis to create pUBYT containing blaKPC-2 and blaKPC-4 with the same promoter ([45]). The single point mutation in KPC-2 (Y274H) and double point mutations in KPC-4 (P104R, V240G) were introduced using a QuikChange Lightning site-directed mutagenesis kit (Agilent Genomics) with the primers specified in Table S1 in the supplemental material. Klebsiella pneumoniae Ecl8 was transformed with the resulting pUBYT constructs via electroporation.
(§2) MIC values were determined using broth microdilution, in triplicate, in cation-adjusted Mueller-Hinton broth (Sigma) according to the Clinical and Laboratory Standards Institute (CLSI) guidelines ([47]). […] Plates were incubated overnight at 37°C for 18 to 24 h, and the absorbance at 600 nm was read using a POLARstar Omega (BMG LabTech) plate reader.

The subject of series [2] is K. pneumoniae Ecl8 pUBYT KPC-4. As to the kind of experiment: microbe, parasite or virus in culture. It is filed as cell-based. The note with it: Klebsiella pneumoniae.
From the text: as §1, §2

Series [3] relates to K. pneumoniae Ecl8 pUBYT KPC-3. As to the kind of experiment: microbe, parasite or virus in culture. In kind it is cell-based. As to conditions: Klebsiella pneumoniae.
From the text: as §1, §2

In series [4] the test system is S. maltophilia K279a. As to the kind of experiment: MIC broth microdilution, S. maltophilia K279a. It is filed as cell-based. As to conditions: for MIC: Stenotrophomonas maltophilia, K279A, read-out: MIC of β-lactam. As for the experimental part: S. maltophilia K279a is a well-characterized isolate from Bristol, United Kingdom, and was obtained as previously reported ([46]).
as §2

The subject of series [5] is K. pneumoniae Ecl8 pUBYT. As to the kind of experiment: MIC broth microdilution, K. pneumoniae Ecl8 pUBYT (empty vector). In kind it is cell-based. As to conditions: Klebsiella pneumoniae, ECL8PUBYT, read-out: MIC of β-lactam.
From the text: as §1, §2
Background: In broth dilution the organism is exposed to a series of concentrations in liquid medium.

Series [6] concerns S. maltophilia K279a. As to conditions: with avibactam; cited from earlier work.
The target of series [7] is T1, L2 (Stenotrophomonas maltophilia, UniProt Q9RBQ1). As to the kind of experiment: IC50, nitrocefin hydrolysis after 10-minute preincubation, L2. In kind it is biochemical.
Procedure: (§4) Kinetic parameters were calculated and analyzed using GraphPad Prism 6.
(§5) Diazabicyclooctanes were dissolved in DMSO (100 mM) and diluted to the desired concentration in 10 mM HEPES (pH 7.5) and 150 mM NaCl.
In series [8] the target is T2, CTX-M-15 (Escherichia coli, UniProt Q9EXV5). As to the kind of experiment: biochemical.
Procedure: as §4, §5
For series [9], the target named is T3, KPC-2 (Klebsiella pneumoniae, UniProt Q9F663). As to conditions: after 24 hours of incubation; cited from earlier work.
The target in series [10] is T3, KPC-2. More on the design: method as in PMID 29627985. The note with it: cited from earlier work.
Series [11] has as its target OXA-48. More on the design: method as in PMID 29627985. As to conditions: cited from earlier work.
In series [12] the target is T1, L2. As to the kind of experiment: Direct competition of relebactam and nitrocefin (Kiapp, k2/K), L2. In kind it is biochemical. As to conditions: Dixon plot, no preincubation; standard deviation in parentheses.
Procedure: as §4
(2) E+I⇌k−1k1E:I⇌k−2k2E-I→k3E-I′→k4E+P
(§6) Complete progress curves were fitted to equation 5 in order to obtain values for kobs (pseudo-first-order rate constant for inactivation).(5) A=vf*t+(v0−vf)*((1−e^−kobs*t)/kobs)+A0
(§7) ([I]) according to equation 6, with the uncorrected value for k2/K (k2/K′) then equal to the slope of the line.(6) kobs=k−2+k2/K^′*[I]
Series [13] concerns the target T2, CTX-M-15. As to the kind of experiment: Direct competition of relebactam and nitrocefin (Kiapp, k2/K), CTX-M-15. It is filed as biochemical.
Procedure: as §4
(2) E+I⇌k−1k1E:I⇌k−2k2E-I→k3E-I′→k4E+P
as §6, §7
Series [14] concerns the target T2, CTX-M-15. As to conditions: recombinant enzyme. As for the experimental part: (§3) Final enzyme concentrations were as follows: 50 nM KPC-2, 5 nM KPC-3, 50 nM KPC-4, 50 pM CTX-M-15, and 50 pM L2. Complete progress curves were collected, and the results fitted to equation 8 to obtain koff.(8) A=vf*t+(v0−vf)*(1−e^−kofft)/koff+A0
Series [15] addresses T4, KPC-3 (Klebsiella pneumoniae, UniProt Q9F663, H272Y). As for the experimental part:
as §3

Series [16] concerns the target T5, KPC-4 (Klebsiella pneumoniae, UniProt Q9F663, P103R/V239G). Here is the method:
as §3

In series [17] the target is T1, L2. As to conditions: recombinant enzyme. As for the experimental part: as §3
Series [18] concerns the target T3, KPC-2. As to conditions: recombinant enzyme. As for the experimental part: as §3
For series [19], the target named is Pseudomonas-derived cephalosporinase-3 (PDC-3). The note with it: read-out: Kiapp; cited from earlier work.
The subject of series [20] is O=C(Cc1cccs1)N[C@@H]1C(=O)N2C(C(=O)O)=C(/C=C/c3ccc([N+](=O)[O-])cc3[N+](=O)[O-])CS[C@H]12. As to the kind of experiment: purified protein, by the assay type. As to conditions: other: nitrocefin as substrate; standard error in parentheses, n = 3; pH 7.5; 25.0 °C.
Series [21] deals with T3, KPC-2. As to conditions: cited from earlier work.
The target in series [22] is T3, KPC-2. In kind it is biochemical. The note with it: nitrocefin as substrate; standard error in parentheses, n = 3.
Procedure: as §4
The target in series [23] is T5, KPC-4. As to the kind of experiment: Steady-state nitrocefin hydrolysis, KPC-4. It is filed as biochemical. As to conditions: nitrocefin as substrate; standard error in parentheses, n = 3.
Procedure: as §4
Series [24] has as its target T4, KPC-3. It is filed as biochemical. The note with it: nitrocefin as substrate; standard error in parentheses, n = 3.
Procedure: as §4
Series [25] relates to KPC variants expressed in K. pneumoniae Ecl8. In kind it is cell-based, Klebsiella pneumoniae. As to conditions: in the presence of 4 mg liter^−1 relebactam.
From the text: as §1, §2

[26] abbreviates: ECL8PUBYTKPC2, read-out: MIC of β-lactam, no inhibitor present.
[27] abbreviates: ECL8PUBYTKPC4, read-out: MIC of β-lactam, no inhibitor present.
[28] abbreviates: ECL8PUBYTKPC3, read-out: MIC of β-lactam, no inhibitor present.

Values joined by “and” are separate entries in the source; they are usually repeats but may differ in a detail not shown here. Equal values may be shown once. Read-outs that look alike come from different tables or passages of the source. Bounds are passed on as bounds.

By IC50 is commonly meant the point on the concentration scale where inhibition reaches its midpoint. The kcat/Km is the turnover number divided by the Michaelis constant.

In the case of `CC(C)(O/N=C(\C(=O)N[C@@H]1C(=O)N2C(C(=O)[O-])=C(C[n+]3ccccc3)CS[C@H]12)c1csc(N)n1)C(=O)O` [Ceftazidime, ceftazidime], the MIC in series [1] (ECL8PUBYTKPC2, read-out: MIC of β-lactam, +AVI (avibactam, 4 mg/liter)) was 0.125 µg/mL; in series [1] (setting [26]), 16 µg/mL; in series [2] (ECL8PUBYTKPC4, read-out: MIC of β-lactam, +AVI (avibactam, 4 mg/liter)), 1 µg/mL; in [2] (setting [27]), 128 µg/mL; in series [3] (ECL8PUBYTKPC3, read-out: MIC of β-lactam, +AVI (avibactam, 4 mg/liter)) it was < 0.125 µg/mL; in series [3] (setting [28]) it was 128 µg/mL. The MIC in series [4] (+AVI (avibactam, 4 mg/liter)) is 8 µg/mL; in series [4] (no inhibitor present), 16 µg/mL; in series [5], < 0.125 µg/mL.

With `C[C@H]1[C@H](NC(=O)/C(=N\OC(C)(C)C(=O)O)c2csc(N)n2)C(=O)N1S(=O)(=O)O` [Aztreonam, aztreonam], the MIC in series [4] (+REL (relebactam, 4 mg/liter)) was 8 µg/mL; in [4] (no inhibitor present), > 256 µg/mL. The “aztreonam MIC” value was 8 µg/mL in series [4] (addition of relebactam), 256 µg/mL in series [4] (without inhibitor) and 2 µg/mL in [6].

On to `NC(=O)[C@@H]1CC[C@@H]2CN1C(=O)N2OS(=O)(=O)O` [Avibactam, avibactam], for which the results for the half-inhibitory concentration (IC50) in series [7] and in [8] were 15 nM and 3.4 nM, respectively. The KPC-2 remaining acylated in series [9] is 10%.

With `N#C[C@@H]1CC[C@@H]2CN1C(=O)N2OS(=O)(=O)O` [WCK-4234], the off rate in series [10] is 0.00045 s⁻¹. For the same molecule, the Ki in series [11] was 290 nM.

As to `O=C(NC1CCNCC1)[C@@H]1CC[C@@H]2CN1C(=O)N2OS(=O)(=O)O` [Relebactam, relebactam], the Ki in [12] was 3000 nM and 2700 nM; in [13], 21000 nM; in [19] it was 3400 nM. Further, the IC50 came out at 470 nM in series [7] and 400 nM in series [8]. In addition, the t1/2 in [14] was found to be 30 min; in series [15] (recombinant enzyme) it was 58 min; in [16] (recombinant enzyme) it was 61 min; in series [17], 21 min; in series [18] it was 13 min. The “reduction in off-rate compared with KPC-2” value in [15] (KPC-3 vs KPC-2) and in series [16] (KPC-4 vs KPC-2) was ~4.5 fold in each case.

With L2 (Stenotrophomonas maltophilia), in [20], the Km is reported as 206 (27) µM, the kcat is reported as 813 (41) s-1 and the kcat/Km is 4e+06 M⁻¹ s⁻¹.

Regarding `O=C(NNC(=O)[C@@H]1CC[C@@H]2CN1C(=O)N2OS(=O)(=O)O)[C@@H]1CCCNC1` [WCK-5107, zidebactam], in series [21], the “Ki value, fold higher than avibactam” value is listed as 5 fold and the “Ki value, fold higher than relebactam” value is 2 fold.

Consider `O=C(Cc1cccs1)N[C@@H]1C(=O)N2C(C(=O)O)=C(/C=C/c3ccc([N+](=O)[O-])cc3[N+](=O)[O-])CS[C@H]12` [Nitrocefin, nitrocefin], for which the values for the Km in [22], in series [23] and in series [24] were 18.3 µM, 59 µM and 36 µM, respectively. Moreover, the values for the kcat in [22], in series [23] and in series [24] were 613 (9) s-1, 166 (44) s-1 and 88 (8) s-1, respectively.

As for CTX-M-15 (Escherichia coli), in series [20], the Km is given as 63 (11) µM, the kcat is 312 (8) s-1 and the kcat/Km was found to be 5e+06 M⁻¹ s⁻¹.

`C[C@@H](O)[C@H]1C(=O)N2C(C(=O)O)=C(SCCN=CN)C[C@H]12` [Imipenem, imipenem]: the MIC in series [1] (ECL8PUBYTKPC2, read-out: MIC of β-lactam, +REL (relebactam, 4 mg/liter)) is 0.5 µg/mL; in series [1] (setting [26]), 64 µg/mL; in series [2] (ECL8PUBYTKPC4, read-out: MIC of β-lactam, +REL (relebactam, 4 mg/liter)), 0.125 µg/mL; in [2] (setting [27]), 0.5 µg/mL; in series [3] (ECL8PUBYTKPC3, read-out: MIC of β-lactam, +REL (relebactam, 4 mg/liter)), < 0.125 µg/mL; in series [3] (setting [28]), 16 µg/mL. Moreover, the MIC in series [4] (+REL (relebactam, 4 mg/liter)) is 64 µg/mL; in series [4] (no inhibitor present), 128 µg/mL; in series [5] it was < 0.0625 µg/mL. In [25], the “imipenem MICs in all KPC producers” value is ≤ 0.5 mg/L.
